Where “and” joins values, the source holds several entries; their conditions need not be identical. Equal entries are not always repeated. Where two headings read alike, the source gives them in different places.
Target: Jack bean urease (Canavalia ensiformis, UniProt P07374)
Test: Urease inhibition assay
Format: biochemical

Sequence of Jack bean urease (P07374 whole entry, looked up): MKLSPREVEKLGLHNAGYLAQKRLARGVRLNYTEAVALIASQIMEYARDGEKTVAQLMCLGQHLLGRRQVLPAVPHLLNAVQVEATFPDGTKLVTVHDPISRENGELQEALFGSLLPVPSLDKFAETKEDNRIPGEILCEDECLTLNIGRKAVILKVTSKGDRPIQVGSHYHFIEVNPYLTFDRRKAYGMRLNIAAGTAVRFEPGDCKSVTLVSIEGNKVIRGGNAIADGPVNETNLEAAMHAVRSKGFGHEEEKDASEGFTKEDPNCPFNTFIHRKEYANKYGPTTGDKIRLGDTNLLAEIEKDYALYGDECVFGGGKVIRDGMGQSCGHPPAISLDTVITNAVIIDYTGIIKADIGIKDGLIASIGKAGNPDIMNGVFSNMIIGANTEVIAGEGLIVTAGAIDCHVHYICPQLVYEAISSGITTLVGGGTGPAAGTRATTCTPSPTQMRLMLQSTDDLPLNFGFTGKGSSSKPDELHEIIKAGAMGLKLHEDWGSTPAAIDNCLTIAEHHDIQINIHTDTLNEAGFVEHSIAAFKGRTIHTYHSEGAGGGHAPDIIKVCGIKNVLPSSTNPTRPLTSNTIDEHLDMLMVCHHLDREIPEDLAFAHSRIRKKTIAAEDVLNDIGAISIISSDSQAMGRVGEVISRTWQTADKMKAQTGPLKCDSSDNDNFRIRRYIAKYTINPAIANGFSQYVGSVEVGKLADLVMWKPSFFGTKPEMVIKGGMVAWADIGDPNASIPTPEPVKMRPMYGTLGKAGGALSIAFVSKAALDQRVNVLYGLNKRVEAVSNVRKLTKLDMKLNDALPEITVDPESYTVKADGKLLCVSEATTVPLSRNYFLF

SMILES: CC1(C)CC(=O)C2=C(C1)Nc1[nH]c(=O)[nH]c(=O)c1C21C(=O)Nc2ccccc21 (centres unmarked) [7a, 8',8'-Dimethyl-8',9'-dihydro-1'H-spiro [indoline-3,5'-pyrimido[4,5-b]quinoline]-2,2',4', 6'(3'H,7'H,10'H)-tetraone]
- IC50 (IC50 (urease inhibitory activity), 37 °C, 30 minutes, read at 625 nm, triplicate): 7.44 µM and 2.81 µM

SMILES: NC(=O)NO [hydroxyurea, reference compound]
- IC50 (read-out: IC50 (urease inhibitory activity), 37 °C, 30 minutes, read at 625 nm, triplicate): 100 µM

From publication PMC5242352 (Iranian Journal of Pharmaceutical Research : IJPR, 2016)
